Results: patent US20180206501A1, “CONTROLLING DISEASES AND INSECTS IN PLANTS” (priority 2017, published 2018)

Columns and labels:
Cercospora = assay: Laboratory over-spray of sugar beet leaf cultures on agar incubation plates; type: cell-based; settings: L-1 and Control leaf cultures; 0.5% solution with 5211 surfactant in water; 24 hours incubation
Procedure: The initial leaf cuttings from L-1 to L-3 were used for additional evaluations. […] All of the leaves were very green, showing no signs of Cercospora. When the leaves were cultured and incubated (three plates per sample), the plate counts on all of the samples were too numerous to count (TNTC) indicating signs of Cercospora infection.
The control sample was taken from a known infected control sample. In addition to the normal culturing process, leaf samples from L-1 and the Control were treated in the laboratory. This involved placing the leaf culture onto the agar incubation plate, over spraying the plate with a 0.5% solution Ztrex 72 and 5211 surfactant in water. The plates were further incubated for 24 hours.
Our Control sample was obtained from Michigan Sugar Company, Bay City, Mich. and was used for all of the initial lab studies.

[1] = system: Escherichia coli (E. coli); assay: Microbial testing, standard pour plate count; type: cell-based
Procedure: The purpose of this study was to evaluate the effectiveness of test materials labeled #6, #7 and #8, in killing or reducing Escherichia coli (E. coli). The standard pour plate count test method was used to evaluate Percent Reduction of Colony Forming Units (CFU).
The E. coli (lot number 168756) was purchased from Quanti-Cult™ and is derived from original ATCC® stock cultures. They are received dehydrated. A viable streak plate was colonized from this culture. One colony was transferred to 5 ml of sterile Tryptic Soy Broth (lot # A3303) and incubated overnight. Antimicrobial activity was determined by comparing results from the test sample to simultaneously run controls or from the T0. The concentration of the suspension was determined using serial dilution and plate counts to determine the amount of Colony Forming Units (CFU's)/ml of suspension.
The materials tested in this study are described in the Purpose section. Sterile 0.3 mM KH2PO4 buffer was inoculated to a concentration of ˜1.0-3.0×10^5 CFU/ml. A To plate originated from the inoculated buffer for quantification and prepared 1:100 dilution to insure that viable inoculum was applied in the test system. The test materials were formulated in 20×150 […] test tubes. Aliquots of 0.3 grams of each of the materials (#6, #7 and #8) were added to sterile test tubes. […]

[2] = Appearance of the solution in water pH = 10 at 24 hours; type: physicochemical; settings: 50% stock plus water pH = 10

Row | Compound | Evidence of Cercospora on the incubation plate (Cercospora) | Application, microbial kill [1] | Plate count ([1]; 0.3 grams in 5 ml Tryptic Soy Broth, 1×10^5 CFU E. coli, 48 hours, T0 9.6×10^4 CFU/ml) | Solution @ 24 hours [2]
1 | CCCCCCCCCCCCCCCCCC[N+](C)(C)CCC[Si](OC)(OC)OC.[Cl-] [Ztrex 72, (CH3O) Si (CH2)N^+ (CH3)2 (C18H37) Cl^−] | no evidence of Cercospora |  |  | 
2 | CO[Si](CCc1ccc(S(=O)(=O)Cl)cc1)(OC)OC [#8, 2-(4-chlorosulfonylphenyl)ethyltrimethoxysilane] |  | 99.99 | 16 CFU/ml | Clear
